Measurements reported in US20100160369A1, “S1P1 Agonists and Methods of Making And Using” (EXELIXIS, INC., priority 2008, published 2010).
Like-named read-outs stand apart in the source and are kept apart here.

Target: S1P1 (Homo sapiens, UniProt P21453)
Assay: CNG cAMP Assay (Assay 1)
Format: cell-based
Parameters: host or cells: HEK293 cells expressing the CNG channel
In short: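 HEK293 cells expressing CNG channel and S1P1, membrane-potential dye loaded; compounds (top 10 μM, 10-point 3-fold, 1.8% DMSO) added with 25 μM Ro 20-1724, 500 nM NECA and 10 nM S1P for 90 min. T90/T0 fluorescence (Ex 350/Em 590 nm) normalised to NECA-alone vs DMSO; EC50 fitted.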

[1] = relative EC50 was measured (footnote 1), read-out: Assay 1 Relative EC50
[2] = footnote 1: Relative EC50 was measured, read-out: Assay 1 Relative EC50

S1P1, sequence (P21453 whole entry): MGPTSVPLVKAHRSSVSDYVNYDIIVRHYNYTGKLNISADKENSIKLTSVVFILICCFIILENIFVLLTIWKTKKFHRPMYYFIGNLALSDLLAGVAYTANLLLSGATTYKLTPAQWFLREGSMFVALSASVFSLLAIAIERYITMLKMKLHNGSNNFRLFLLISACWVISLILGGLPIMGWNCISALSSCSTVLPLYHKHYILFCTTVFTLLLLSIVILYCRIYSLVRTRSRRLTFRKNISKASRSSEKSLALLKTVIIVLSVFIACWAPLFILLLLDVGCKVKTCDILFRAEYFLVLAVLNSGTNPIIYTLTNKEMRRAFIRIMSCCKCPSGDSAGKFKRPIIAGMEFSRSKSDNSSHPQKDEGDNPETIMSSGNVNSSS

EC50 (read-out: Assay 1 EC50) [µM]	Compound	other results
0.1 to 0.5	N#Cc1cc(C(F)(F)F)cn2cc(-c3nc(-c4ccc(F)cc4Cl)no3)nc12 [Example 291, 2-[3-(2-chloro-4-fluorophenyl)-1,2,4-oxadiazol-5-yl]-6-(trifluoromethyl)imidazo[1,2-a]pyridine-8-carbonitrile]	–
≤ 0.1	Nc1ccc(-c2noc(-c3cn4cc(C(F)(F)F)cc(Cl)c4n3)n2)c(Cl)c1 [Example 90, 3-chloro-4-{5-[8-chloro-6-(trifluoromethyl)imidazo[1,2-a]pyridin-2-yl]-1,2,4-oxadiazol-3-yl}aniline]	–
0.1 to 0.5	CC(Cc1ccc(-c2noc(-c3cn4cc(C(F)(F)F)cc(Cl)c4n3)n2)c(F)c1)C(=O)O (stereo not shown) [Example 192, 3-(4-{5-[8-chloro-6-(trifluoromethyl)imidazo[1,2-a]pyridin-2-yl]-1,2,4-oxadiazol-3-yl}-3-fluorophenyl)-2-methylpropanoic acid]	–
≤ 0.1	O=C(O)CCc1ccc(-c2noc(-c3cn4cc(C(F)(F)F)cc(Cl)c4n3)n2)cc1 [Entry 22]	–
0.5 to 1	FC(F)(F)c1cccc(-c2noc(-c3cn4cc(C(F)(F)F)cc(Cl)c4n3)n2)c1 [Example 143, 8-chloro-6-(trifluoromethyl)-2-{3-[3-(trifluoromethyl)phenyl]-1,2,4-oxadiazol-5-yl}imidazo[1,2-a]pyridine]	–
0.1 to 0.5	NC(=O)C(CC(=O)O)c1ccc(-c2noc(-c3cn4cc(C(F)(F)F)cc(Cl)c4n3)n2)c(Cl)c1 (stereo not shown) [Example 135, 4-amino-3-(3-chloro-4-{5-[8-chloro-6-(trifluoromethyl)imidazo[1,2-a]pyridin-2-yl]-1,2,4-oxadiazol-3-yl}phenyl)-4-oxobutanoic acid]	–
≤ 0.1	NC(=O)Cn1ccc2c(-c3noc(-c4cn5cc(C(F)(F)F)cc(Cl)c5n4)n3)cccc21 [Example 174, 2-(4-{5-[8-chloro-6-(trifluoromethyl)imidazo[1,2-a]pyridin-2-yl]-1,2,4-oxadiazol-3-yl}-1H-indol-1-yl)acetamide]	–
0.1 to 0.5	Fc1ccccc1-c1nc(-c2cn3cc(C(F)(F)F)cc(Cl)c3n2)no1 [Example 230, 8-chloro-2-[5-(2-fluorophenyl)-1,2,4-oxadiazol-3-yl]-6-(trifluoromethyl)imidazo[1,2-a]pyridine]	–
≤ 0.1	O=C(O)CN1CCC(Oc2ccc(-c3noc(-c4cn5cc(C(F)(F)F)cc(Cl)c5n4)n3)c(Cl)c2)C1 (stereo not shown) [Example 112]	–
0.1 to 0.5	OC[C@H]1C[C@H](Oc2ccc(-c3noc(-c4cn5cc(C(F)(F)F)cc(Cl)c5n4)n3)c(Cl)c2)CN1 [Example 84, {(2R,4S)-4-[(3-chloro-4-{5-[8-chloro-6-(trifluoromethyl)imidazo[1,2-a]pyridin-2-yl]-1,2,4-oxadiazol-3-yl}phenyl)oxy]pyrrolidin-2-yl}methanol]	–
≤ 0.1	CC(CC(N)=O)c1ccc(-c2noc(-c3cn4cc(C(F)(F)F)cc(Cl)c4n3)n2)c(Cl)c1 (stereo not shown) [Example 170, 3-(3-chloro-4-{5-[8-chloro-6-(trifluoromethyl)imidazo[1,2-a]pyridin-2-yl]-1,2,4-oxadiazol-3-yl}phenyl)butanamide]	–

The next lines start with the compound.

Compound	EC50 (read-out: Assay 1 EC50) [µM]	other results
CS(=O)(=O)Nc1ccc(-c2noc(-c3cn4cc(C(F)(F)F)cc(Cl)c4n3)n2)cc1 [Example 117, N-(4-{5-[8-chloro-6-(trifluoromethyl)imidazo[1,2-a]pyridin-2-yl]-1,2,4-oxadiazol-3-yl}phenyl)methanesulfonamide]	≤ 0.1	–
O=C(O)C1CC1c1ccc(-c2noc(-c3cn4cc(C(F)(F)F)cc(Cl)c4n3)n2)c(F)c1 (stereo not shown) [Entry 41]	0.1 to 0.5	–
FC(F)(F)c1cc(Cl)c2nc(-c3nc(-c4ccccc4C(F)(F)F)no3)cn2c1 [Example 165, 8-chloro-6-(trifluoromethyl)-2-{3-[2-(trifluoromethyl)phenyl]-1,2,4-oxadiazol-5-yl}imidazo[1,2-a]pyridine]	0.1 to 0.5	–
CC(Cc1ccc(-c2noc(-c3cn4cc(C(F)(F)F)cc(Br)c4n3)n2)c(Cl)c1)C(=O)O (stereo not shown) [Example 189, 3-(4-{5-[8-bromo-6-(trifluoromethyl)imidazo[1,2-a]pyridin-2-yl]-1,2,4-oxadiazol-3-yl}-3-chlorophenyl)-2-methylpropanoic acid]	≤ 0.1	–
COc1cc2nc(-c3nc(-c4cc(F)c(CCC(=O)O)cc4Cl)no3)cn2cc1Cl [Entry 55]	–	EC50 [1]: 5 to 10 µM
O=C(O)Cc1ccc(-c2noc(-c3cn4cc(C(F)(F)F)cc(Cl)c4n3)n2)c(Cl)c1 [Example 133, (3-chloro-4-{5-[8-chloro-6-(trifluoromethyl)imidazo[1,2-a]pyridin-2-yl]-1,2,4-oxadiazol-3-yl}phenyl)acetic acid]	–	EC50 [2]: 1 to 5 µM
CS(=O)(=O)Nc1cc(Cl)c2nc(-c3nc(-c4cc(F)c(CCC(=O)O)cc4Cl)no3)cn2c1 [Entry 59]	–	EC50 [1]: 1 to 5 µM
O=C(Cn1ccc2c(-c3noc(-c4cn5cc(C(F)(F)F)cc(Cl)c5n4)n3)cccc21)NCCO [Example 175, 2-(4-{5-[8-chloro-6-(trifluoromethyl)imidazo[1,2-a]pyridin-2-yl]-1,2,4-oxadiazol-3-yl}-1H-indol-1-yl)-N-(2-hydroxyethyl)acetamide]	≤ 0.1	–
O=C(O)C1CC1c1ccc(-c2noc(-c3cn4cc(C(F)(F)F)cc(Cl)c4n3)n2)cc1F (stereo not shown) [Example 78, 2-(4-{5-[8-chloro-6-(trifluoromethyl)imidazo[1,2-a]pyridin-2-yl]-1,2,4-oxadiazol-3-yl}-2-fluorophenyl)cyclopropanecarboxylic acid]	0.1 to 0.5	–
O=C(O)C1CN(Cc2ccc(-c3noc(-c4cn5cc(C(F)(F)F)cc(Cl)c5n4)n3)cc2Cl)C1 [Example 127, 1-[(2-chloro-4-{5-[8-chloro-6-(trifluoromethyl)imidazo[1,2-a]pyridin-2-yl]-1,2,4-oxadiazol-3-yl}phenyl)methyl]azetidine-3-carboxylic acid]	0.1 to 0.5	–
CS(=O)(=O)Nc1ccc(-c2noc(-c3cn4cc(C(F)(F)F)cc(Cl)c4n3)n2)cc1F [Example 109, N-(4-{5-[8-chloro-6-(trifluoromethyl)imidazo[1,2-a]pyridin-2-yl]-1,2,4-oxadiazol-3-yl}-2-fluorophenyl)methanesulfonamide]	0.1 to 0.5	–
N[C@@H](COc1ccc(-c2noc(-c3cn4cc(C(F)(F)F)cc(Cl)c4n3)n2)c(Cl)c1)C(=O)O [Example 188, O-(3-chloro-4-{5-[8-chloro-6-(trifluoromethyl)imidazo[1,2-a]pyridin-2-yl]-1,2,4-oxadiazol-3-yl}phenyl)serine]	0.1 to 0.5	–
CCN(CC)CCS(=O)(=O)Nc1ccc(-c2noc(-c3cn4cc(C(F)(F)F)cc(Cl)c4n3)n2)c(Cl)c1 [Example 108, N-(3-chloro-4-{5-[8-chloro-6-(trifluoromethyl)imidazo[1,2-a]pyridin-2-yl]-1,2,4-oxadiazol-3-yl}phenyl)-2-(diethylamino)ethanesulfonamide]	–	EC50 [1]: 1 to 5 µM
Cc1cc(-c2noc(-c3cn4cc(C(F)(F)F)cc(Cl)c4n3)n2)ccc1NS(C)(=O)=O [Example 119, N-(4-{5-[8-chloro-6-(trifluoromethyl)imidazo[1,2-a]pyridin-2-yl]-1,2,4-oxadiazol-3-yl}-2-methylphenyl)methanesulfonamide]	≤ 0.1	–
O=C(O)C1CN(Cc2ccc(-c3nc(-c4cn5cc(C(F)(F)F)cc(Cl)c5n4)no3)cc2)C1 [Example 231, 1-[(4-{3-[8-chloro-6-(trifluoromethyl)imidazo[1,2-a]pyridin-2-yl]-1,2,4-oxadiazol-5-yl}phenyl)methyl]azetidine-3-carboxylic acid]	–	EC50 [2]: 5 to 10 µM
O=C(O)CCc1cc(Cl)c(-c2noc(-c3cn4ccccc4n3)n2)cc1F [Entry 27]	–	EC50 [1]: 5 to 10 µM
Cc1cc(Cl)c2nc(-c3nc(-c4ccc(NS(C)(=O)=O)cc4Cl)no3)cn2c1 [Example 270, N-{3-chloro-4-[5-(8-chloro-6-methylimidazo[1,2-a]pyridin-2-yl)-1,2,4-oxadiazol-3-yl]phenyl}methanesulfonamide]	–	EC50 [2]: 5 to 10 µM
O=C(O)CCc1cc(F)c(-c2noc(-c3cn4cc(C(F)(F)F)cc(Cl)c4n3)n2)cc1F [Entry 60]	≤ 0.1	–
Cc1cc(NS(C)(=O)=O)c(F)cc1-c1noc(-c2cn3cc(C(F)(F)F)cc(Cl)c3n2)n1 [Example 106, N-(4-{5-[8-chloro-6-(trifluoromethyl)imidazo[1,2-a]pyridin-2-yl]-1,2,4-oxadiazol-3-yl}-2-fluoro-5-methylphenyl)methane sulfonamide]	≤ 0.1	–
O=C(O)CCc1cc(Cl)c(-c2noc(-c3cn4cccc(Cl)c4n3)n2)cc1F [Entry 32]	0.1 to 0.5	–
O=C(O)C1CC1c1cc(F)c(-c2noc(-c3cn4cc(C(F)(F)F)cc(Cl)c4n3)n2)cc1F (stereo not shown) [Example 88, 2-(4-{5-[8-chloro-6-(trifluoromethyl)imidazo[1,2-a]pyridin-2-yl]-1,2,4-oxadiazol-3-yl}-2,5-difluorophenyl)cyclopropanecarboxylic acid]	≤ 0.1	–
OCCN1CCC(Oc2ccc(-c3noc(-c4cn5cc(C(F)(F)F)cc(Cl)c5n4)n3)c(Cl)c2)C1 (stereo not shown) [Example 210, 2-{3-[(3-chloro-4-{5-[8-chloro-6-(trifluoromethyl)imidazo[1,2-a]pyridin-2-yl]-1,2,4-oxadiazol-3-yl}phenyl)oxy]pyrrolidin-1-yl}ethanol]	–	EC50 [2]: 1 to 5 µM
CCNC(CC(=O)O)c1ccc(-c2noc(-c3cn4cc(C(F)(F)F)cc(Cl)c4n3)n2)c(Cl)c1 (stereo not shown) [Example 137, 3-(3-chloro-4-{5-[8-chloro-6-(trifluoromethyl)imidazo[1,2-a]pyridin-2-yl]-1,2,4-oxadiazol-3-yl}phenyl)-3-(ethylamino)propanoic acid]	–	EC50 [2]: 1 to 5 µM
